Experimental data reported in US20030170643A1, “Regulation of apoB treatment and drug screening for cardiovascular and metabolic disorders or syndromes” (priority 1999, published 2003).

Test system: rat hepatoma cells
Test: TBARS assay of ROS in cell lysates of rat hepatoma cells
Format: cell-based
Settings: fatty acid alone
Protocol: FIG. 13 illustrates that either an iron chelator (DFX) or lipid antioxidants block DHA-stimulated apoB degradation and reactive oxygen species (ROS) production. Rat hepatoma cells were plated in culture wells and pre-incubated in media containing either DHA or DHA with one of the indicated compounds. Radiolabeled methionine/cysteine was added to the culture media for 15 minutes, after which time, the culture media were replaced by fresh media identical in composition except that radiolabeled methionine/cysteine were replaced by unlabeled methionone/cysteine. The recovery of labeled apoB100 ([^35S]-apoB100) from the media and cell lysate was determined at the indicated time points (with time 0 being the point when the fresh media were applied to the cells) by immunoprecipitating apoB species with a rabbit polyclonal antibody to rat apoB, resuspending the immunoprecipitates, combining aliquots from cell lysate and media samples from each well, resolving the protein contents of the combined immunoprecipitates by SDS-polyacrylamide gel electrophoresis (SDS-PAGE), and exposing the resultant gels to X-ray film in order to visualize the labeled apoB bands. In panel A are shown representative signals for radiolabeled apoB100 in each of the treatment conditions. […] For each treatment, there were at least 2 wells/treatment for each time point and the entire experiment repeated. The signal intensities of the apoB100 bands were quantified by densitometry and the mean relative recoveries (the % of the 15 minute, or initial, value still remaining at 120 minutes) ±SEM are shown in panel B. Note that the visual impressions observable in panel A are confirmed by the quantitative analysis; i.e., there is a substantial increase in labeled apoB100 recovery with any of the co-treatments. In panel C, the ROS content of the cell lysates at the end of the experiment was measured by the standard TBARS assay (Stocks et al., 1974, Clin Sci Mol Med 47,215-222). Note that compared to control (BSA), DHA induced a large increase in TBARS, as expected because of its high content on unsaturated bonds. […] FIG. 15 illustrates that AA stimulates apoB100 degradation and increases ROS. […] Note in the upper panel that the combined recovery (from two separate wells/time point) of radiolabeled apoB100 decreased from 15 to 120 minutes, indicating significant apoB100 degradation had occurred in the presence of AA. […] In addition to being a source of ROS, AA can also be converted by cyclooxygenase (COX) to bioactive prostaglandin compounds. We therefore repeated the experiment with AA but with co-treatment by the COX inhibitor aspirin.

CCCCCCCC/C=C\CCCCCCCC(=O)O [OA, oleic acid]
reactive oxygen species (ROS), TBARS assay, fatty acid compared to BSA: does not increase
